Assay results published in patent US9714245B2, “Carboline compounds usable in the treatment of neurodegenerative diseases” (ALZPROTECT, priority 2013, dated 2017).

How the values were obtained:
[1] = test system: CTFα; test: Quantification of APP-CTFα by Western blot in SY5Y-APPWT cells; format: cell-based, Human; details: compared to a control with a value of 100
Procedure: Quantifications of APP-CTFs and AICD
After treatment, SY5Y-APP^WT cells were scrapped and lysed in 1× Lysis Buffer (250 mM NaCl, 50 mM Tris, pH 8.8, 5 mM EDTA, 2.5% Triton X-100, 1% Deoxycholate, 0.1% SDS). For the Western blotting, an equal amount of total proteins (20 μg/lane) was loaded on a 16.5% Tris-Tricine or 8-16% Tris-Glycine polyacrylamide gel.
SDS-polyacrylamide gel electrophoresis (PAGE) was performed using the Criterion™ Tris-Tricine-precast or Bis-Tris-precast criterion gels (Bio-Rad Bioresearch division). Proteins were transferred to a […] nitrocellulose membrane (Hybond, Amersham Biosciences) at 2.5 mA/cm2 per gel using the Criterion™ Blotter system (Amersham Biosciences), according to the manufacturer's instructions. Proteins were reversibly stained with Ponceau Red in order to check the quality of the transfer of protein. The membranes were blocked in 25 mM Tris-HCl pH 8.0, 150 mM NaCl, 0.1% Tween-20 (v/v) and 5% (w/v) of skimmed milk for 30 min. Membranes were incubated overnight at 4° C. with appropriate dilution of the primary antibodies, and were incubated for 1 h at room temperature with secondary antibody. […] Quantifications were calculated with Image J software (NIH) and the data were collected using Excel Software (Microsoft). The loading variations between Western blot lanes were normalized according to the tubulin signal. Quantification of CTFα and AICD were compared to control conditions (considered as 100 in arbitrary units) and are presented for two concentrations of the drug: 1 and 10 μM.

[2] = Cytotoxicity evaluation (MTS assay); format: cell-based, Human; details: human, SY5Y-APPWT neuroblastoma cells (expressing APP); SY5Y-APPWT cells, 24 h treatment, MTS
Procedure: Human neuroblastoma cell line SY5Y-APP^WT was used to assess the cytotoxic effects of each compound. SY5Y-APP^WT cells were seeded at 20000 cells/well onto 96-well plates and were cultured in Dulbecco's modified Eagle medium (DMEM, Invitrogen) supplemented with 10% fetal calf serum (PAA), 2 mM L-glutamine (Invitrogen), 1 mM non-essential amino acids (Invitrogen), 50 units/ml penicillin/streptomycin (Invitrogen), and 200 μg G418=geneticin (Invitrogen) (selection for cells expressing APP) in a 5% CO2 humidified incubator at 37° C. After 24 h, the cells were washed and incubated with the compound at 0.1; 0.3; 1; 3; 10; 30 and 100 μM or with DMSO as control diluted in the same culture medium at 37° C. in 5% CO2. After 24 h of treatment, cytotoxicity was determined by using colorimetric MTS assay (CellTiter 96® Aqueous One Solution Cell Proliferation Assay-MTS Promega) according to the protocol of the manufacturer. Absorbance was read at 490 nm and results were expressed as % from control condition considered as 100%.

[3] = test system: sAPPα; test: Soluble APPα quantification (ELISA); format: cell-based, Human; details: 24 h, control considered as 100
Procedure: Soluble APPα Quantification
Human neuroblastoma cell line SKNSH-SYSY APP′ was cultured in Dulbecco's modified Eagle medium (Invitrogen) supplemented with 10% fetal calf serum (PAA), 2 mM L-glutamine (Invitrogen), 1 mM non-essential amino acids (Invitrogen), 50 units/ml penicillin/streptomycin (Invitrogen), and 200 μg G418=geneticin (Invitrogen) (selection for cell expressing APP) in a 5% CO2 humidified incubator at 37° C. Cells were counted and seed at 400000 cells/well into a 12-wells plate for 24 h. The day after, cells were treated with 700 μL/well of drug at 0.3; 1; 3 and 10 μM and incubated for 24 h in a 5% CO2 incubator at 37° C. After treatment, culture medium samples were collected and stored at −80° C. until analysis. Samples corresponding to the 1 and 10 μM treatment were centrifuged 1500 rpm for 5 min at 4° C. sAPPα quantification by ELISA was done with Human sAPPα Assay Kit-IBL (Cat#27734) in accordance with manufacturer's protocol. Samples were diluted at 1:150 in the diluent buffer provided in the kit. Each sample was loaded in duplicate onto the 96 well-plate. Results are expressed in ng/ml and then compared to control conditions (considered as 100 in arbitrary units) and are presented for two concentrations of the drug: 1 and 10 μM.

[4] = target: T1, HIS-tagged valosin-containing protein/p97 (VCP/p97) (Homo sapiens, UniProt P55072); test: VCP interaction assay (competition with biotinylated probe 4.7); format: binding; details: compound 60 μM against biotinylated probe 4.7 20 μM
T1 construct: purchased TebuBio
Procedure: Physical interaction between HIS-tagged valosin-containing protein/p97 (VCP/p97) (TebuBio) and biotinylated probe 4.7 was investigated by Enzyme-Linked Assay (ELA) based on HIS-Select® High Sensitivity Nickel coated plates, used following manufacturer's recommendations (Sigma Aldrich). Other chemical compounds were tested in competition with the biotinylated probe 4.7 in this system. Briefly, nickel beads were incubated overnight at 4° C. with 2% casein blocking solution. After a three-time rinse with wash buffer (0.05% Tween20 in phosphate buffer saline), HIS-tagged VCP/p97 protein (5 μg/ml in PBS) was incubated with nickel beads for 90 min at 25° C. Then, the plate was washed three times. Chemical compounds (60 μM) were incubated 10 min at 25° C. before addition of biotinylated probe 4.7 (20 μM) 30 min at 25° C. After five washes, streptavidin-peroxidase (2 μg/ml) was added during 1 h at 25° C., followed by the peroxidase substrate addition 30 min at RT. Reaction was stopped with 0.5M H2SO4 solution and the optical density was read at 450 nm using a microplate reader (VICTOR X4 Wallac, 2030-0040, PerkinElmer). Competition efficiency was quantified by the loss of signal compared to the control condition.

[5] = test system: CTFα; test: In vivo acute treatment, CTFα in brain tissue; design: species or system C57Bl6 mice; details: acute p.o. 24 h
Procedure: Female C57Bl6 mice of 4 month-old were treated p.o. (gavage) with either vehicle (control) or drug at 3; 6; 12.5 and 25 mg/kg (n=6 per group) for 24 h. The product was administered with a disposable Rodent Feeding Tube ECIMED Ref#V0104030 (4 mm×30 mm). After 24 h, mice were sacrificed and their troncal blood was collected and stored at 4° C. Brains were immediately removed to dissect the Frontal Cortex, the Cortex around the Hippocampus and the Hippocampus. These areas were stored at −80° C. until use. Blood was then centrifuged at 2100×g for 5 min. Resulting plasma was used to quantify the circulating drug and brain tissues were used for biochemical determinations (PFC: prefrontal cortex and HIP: hippocampus).

T1 sequence (P55072 whole entry): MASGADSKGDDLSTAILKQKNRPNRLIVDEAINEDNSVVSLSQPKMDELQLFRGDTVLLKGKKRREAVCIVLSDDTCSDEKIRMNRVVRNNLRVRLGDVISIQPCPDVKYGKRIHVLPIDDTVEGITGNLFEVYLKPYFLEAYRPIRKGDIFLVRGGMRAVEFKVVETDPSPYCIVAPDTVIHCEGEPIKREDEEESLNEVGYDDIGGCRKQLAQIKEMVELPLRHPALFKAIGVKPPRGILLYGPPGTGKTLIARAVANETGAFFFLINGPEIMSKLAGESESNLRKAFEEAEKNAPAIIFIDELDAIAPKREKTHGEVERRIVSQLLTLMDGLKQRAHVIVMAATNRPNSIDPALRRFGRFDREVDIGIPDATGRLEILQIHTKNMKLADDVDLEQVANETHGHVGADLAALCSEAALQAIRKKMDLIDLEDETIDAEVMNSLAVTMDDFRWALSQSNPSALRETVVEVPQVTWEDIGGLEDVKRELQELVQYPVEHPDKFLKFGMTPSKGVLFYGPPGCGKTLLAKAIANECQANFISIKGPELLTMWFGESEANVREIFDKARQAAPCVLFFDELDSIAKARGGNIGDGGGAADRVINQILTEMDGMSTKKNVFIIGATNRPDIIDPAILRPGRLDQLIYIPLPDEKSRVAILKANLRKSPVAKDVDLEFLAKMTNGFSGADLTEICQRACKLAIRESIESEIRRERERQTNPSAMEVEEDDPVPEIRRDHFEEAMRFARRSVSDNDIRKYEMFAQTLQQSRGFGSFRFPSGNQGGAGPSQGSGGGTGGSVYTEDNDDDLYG

CC(C)CN(CCCN1CCN(CCCN2CCc3[nH]c4ccc(F)cc4c3C2)CC1)CC(C)C [Compound 3.1d, N,N-diisobutyl-3-(4-(3-(8-fluoro-1,3,4,5-tetrahydro-1H-pyrido[4,3-b]indol-2-yl)propyl)piperazin-1-yl)propylamine]
CTFα (10 μM) [1]: 1011 arbitrary units
CC50 at 24 h [2]: 15 µM
sAPPα (10 μM) [3]: 166 arbitrary units
VCP (competition efficiency, loss of signal compared to the control) [4]: 96%
HIP CTFα (6-12.5 mg/kg), first line ([5]; hippocampus, 6 mg/kg (first of the two doses in the head)): 110
HIP CTFα (6-12.5 mg/kg), second line ([5]; hippocampus, 12.5 mg/kg (second of the two doses in the head)): 115
PFC CTFα (6-12.5 mg/kg), first line ([5]; prefrontal cortex, 6 mg/kg (first of the two doses in the head)): 90
PFC CTFα (6-12.5 mg/kg), second line ([5]; prefrontal cortex, 12.5 mg/kg (second of the two doses in the head)): 90
